Measured values: patent US20230113037A1 (Bayer Aktiengesellschaft, priority 2019, published 2023)
pIC50: −log10 of the molar value. Read-outs that look alike come from different tables or passages of the source.

Key:
AHR [1] = target: T1, AHR (Homo sapiens, UniProt P35869); experiment: In vitro assay 1: antagonism in human cell line (AHR transactivation, firefly luciferase reporter, kynurenic acid prestimulated); assay type: cell-based; conditions: AHR Antagonism Human IC50 [M]
T1 construct: U87 MG glioblastoma cells (ATCC #HTB-14) endogenously expressing AHR; endogenous in cells; host or cells: U87 MG glioblastoma cells (ATCC #HTB-14)
T1 sequence (P35869 11-848): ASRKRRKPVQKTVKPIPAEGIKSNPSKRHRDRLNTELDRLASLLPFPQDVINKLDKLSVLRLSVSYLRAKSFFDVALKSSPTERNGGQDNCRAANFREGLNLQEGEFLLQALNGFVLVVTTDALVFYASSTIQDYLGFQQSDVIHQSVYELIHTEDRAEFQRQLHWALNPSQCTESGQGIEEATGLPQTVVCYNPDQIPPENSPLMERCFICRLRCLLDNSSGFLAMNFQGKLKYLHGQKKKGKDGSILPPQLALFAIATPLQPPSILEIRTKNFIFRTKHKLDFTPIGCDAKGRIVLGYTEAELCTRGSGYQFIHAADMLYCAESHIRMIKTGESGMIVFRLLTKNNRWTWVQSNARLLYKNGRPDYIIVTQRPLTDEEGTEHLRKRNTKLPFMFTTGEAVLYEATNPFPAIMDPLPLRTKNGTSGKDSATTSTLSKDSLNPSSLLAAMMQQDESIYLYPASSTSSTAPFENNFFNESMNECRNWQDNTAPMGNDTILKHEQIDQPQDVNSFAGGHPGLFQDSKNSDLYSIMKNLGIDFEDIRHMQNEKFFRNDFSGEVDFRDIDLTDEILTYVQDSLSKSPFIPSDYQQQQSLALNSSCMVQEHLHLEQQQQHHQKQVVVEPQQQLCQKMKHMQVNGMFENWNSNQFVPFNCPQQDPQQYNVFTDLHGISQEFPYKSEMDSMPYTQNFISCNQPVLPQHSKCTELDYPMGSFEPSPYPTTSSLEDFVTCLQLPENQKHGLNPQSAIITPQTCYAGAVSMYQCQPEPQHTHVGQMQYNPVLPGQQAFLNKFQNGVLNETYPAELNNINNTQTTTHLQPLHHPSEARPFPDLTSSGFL
Experimental: Examples were tested in selected biological assays one or more times. When tested more than once, data are reported as either average values or as median values, wherein • the average value, also referred to as the arithmetic mean value, represents the sum of the values obtained divided by the number of times tested, and • the median value represents the middle number of the group of values when ranked in ascending or descending order. If the number of values in the data set is odd, the median is the middle value. If the number of values in the data set is even, the median is the arithmetic mean of the two middle values.
Transactivation assays were carried out in U87 MG glioblastoma cells (ATCC #HTB-14) endogenously expressing AHR. In addition the cells were stably transfected with an AHR inducible firefly luciferase reporter gene construct that carried AHR-binding sites (DRE) in its promoter and a renilla reporter gene construct with constitutively active promoter. Kynurenic acid is an endogenous AHR activating ligand and was used to prestimulate test cells prior to testing the antagonistic properties of compounds.
As positive inhibition control cells supplemented with 150 μM kynurenic acid were incubated in presence of 5 μM Staurosporin. Normalization was done by positive and negative controls.
Firefly luciferase and Renilla activity was determined by the DualGlo Luciferase Assay System (Promega, #2920). Renilla activity was used to assess toxic effects of compounds.

AHR [2] = target: T2, AHR (Mus musculus, UniProt P30561); experiment: In vitro assay 3: antagonism in mouse cell line (AHR transactivation, firefly luciferase reporter, kynurenic acid prestimulated); assay type: cell-based
T2 sequence (P30561 1-848 P471L/N533S/M589L): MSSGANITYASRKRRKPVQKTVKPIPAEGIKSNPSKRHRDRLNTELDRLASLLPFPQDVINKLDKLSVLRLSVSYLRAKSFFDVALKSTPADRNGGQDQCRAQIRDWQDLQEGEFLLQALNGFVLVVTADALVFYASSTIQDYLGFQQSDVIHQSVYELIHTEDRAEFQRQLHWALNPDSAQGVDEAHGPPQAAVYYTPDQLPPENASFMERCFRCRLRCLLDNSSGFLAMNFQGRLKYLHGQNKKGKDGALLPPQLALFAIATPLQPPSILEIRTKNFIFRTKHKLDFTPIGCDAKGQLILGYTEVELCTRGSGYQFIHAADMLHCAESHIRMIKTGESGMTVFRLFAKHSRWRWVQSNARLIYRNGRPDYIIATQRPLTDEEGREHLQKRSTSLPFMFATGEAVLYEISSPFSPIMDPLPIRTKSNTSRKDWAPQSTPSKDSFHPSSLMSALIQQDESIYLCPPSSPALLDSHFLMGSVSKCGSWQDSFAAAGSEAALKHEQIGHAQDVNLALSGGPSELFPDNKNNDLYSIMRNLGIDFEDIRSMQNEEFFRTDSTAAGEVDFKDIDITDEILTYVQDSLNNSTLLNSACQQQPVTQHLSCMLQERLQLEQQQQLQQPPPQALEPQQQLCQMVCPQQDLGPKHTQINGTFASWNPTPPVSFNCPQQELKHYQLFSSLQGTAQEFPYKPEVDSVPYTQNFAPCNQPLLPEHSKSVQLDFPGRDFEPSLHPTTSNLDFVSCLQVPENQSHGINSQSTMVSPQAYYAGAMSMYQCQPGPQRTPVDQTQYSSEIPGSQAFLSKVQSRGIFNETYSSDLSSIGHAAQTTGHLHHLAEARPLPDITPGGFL
Method in brief: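 Mouse cells stably carrying a DRE-driven AHR-inducible firefly luciferase reporter were prestimulated with the endogenous agonist kynurenic acid before compound addition. Luciferase read by SteadyGlo; cells without kynurenic acid served as full-inhibition control, with normalization to positive and negative controls. Repeat tests reported as mean or median.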

[3] = Hepa 1c1c7 cells, 200 μM kynurenic acid, 20 hours, firefly luciferase reporter, read-out: AHR Antagonism Mouse IC50
[4] = mouse Hepa 1c1c7 cells, 200 μM kynurenic acid, 20 hours, read-out: AHR Antagonism Mouse IC50

Compound	IC50 (AHR [1]; firefly luciferase reporter)	pIC50 (AHR [2]; [3])	IC50 (AHR [1])	pIC50 (AHR [2]; [4])	pIC50 (AHR [2]; read-out: AHR Antagonism Mouse IC50, mouse Hepa 1c1c7 cells, 200 μM kynurenic acid, 20 hours)
COCCNC(=O)[C@H](Nc1nc2c(Br)cccc2c2nc(-c3ccc(OC)cc3)nn12)C(C)C [Example 923, N^2-[7-bromo-2-(4-methoxyphenyl)[1,2,4]triazolo[1,5-c]quinazolin-5-yl]-N-(2-methoxyethyl)-D-valinamide]	3.26e-09 M	8.67	–	–	–
COc1ccc(-c2nc3c4cccc(OCC(C)(C)O)c4nc(N[C@@H]4CCCCNC4=O)n3n2)cc1 [Example 997, (3R)-3-{[7-(2-hydroxy-2-methylpropoxy)-2-(4-methoxyphenyl)[1,2,4]triazolo[1,5-c]quinazolin-5-yl]amino}azepan-2-one]	8.11e-08 M	6.86	–	–	–
COc1ccc(-c2nc3c4c(C(F)(F)F)cccc4nc(N[C@@H]4CCCCNC4=O)n3n2)cc1 [Example 172, (3R)-3-{[2-(4-methoxyphenyl)-10-(trifluoromethyl)[1,2,4]triazolo[1,5-c]quinazolin-5-yl]amino}azepan-2-one]	–	–	1.29e-08 M	7.92	–
COc1ccc(-c2nc3c4cccc(Br)c4nc(N[C@@H]4CCCNC4=O)n3n2)cc1 [Example 223, (3R)-3-{[7-bromo-2-(4-methoxyphenyl)[1,2,4]triazolo[1,5-c]quinazolin-5-yl]amino}piperidin-2-one]	–	–	5.32e-08 M	6.95	–
O=C1NCCCCCC1Nc1nc2ccccc2c2nc(-c3ccccc3OC(F)(F)F)nn12 (stereo not shown) [Example 461, 3-({2-[2-(trifluoromethoxy)phenyl][1,2,4]triazolo[1,5-c]quinazolin-5-yl}amino)azocan-2-one]	–	–	6.18e-09 M	8.71	–
COc1ccc(-c2nc3c4c(C#N)cccc4nc(N[C@@H]4CCCCNC4=O)n3n2)cc1 [Example 246, 2-(4-methoxyphenyl)-5-{[(3R)-2-oxoazepan-3-yl]amino}[1,2,4]triazolo[1,5-c]quinazoline-10-carbonitrile]	–	–	3.32e-09 M	7.95	–
O=C1NCCNC[C@H]1Nc1nc2c(C(F)(F)F)cccc2c2nc(-c3cnn(C4CC4)c3)nn12 [Example 963, (6R)-6-{[2-(1-cyclopropyl-1H-pyrazol-4-yl)-7-(trifluoromethyl)[1,2,4]triazolo[1,5-c]quinazolin-5-yl]amino}-1,4-diazepan-5-one]	1.76e-09 M	8.32	–	–	–
COc1ccc(-c2nc3c4cccc(Br)c4nc(N[C@H](C)C(=O)N4C[C@@H]5C[C@H]4CO5)n3n2)cc1 [Example 914, (2R)-2-{[7-bromo-2-(4-methoxyphenyl)[1,2,4]triazolo[1,5-c]quinazolin-5-yl]amino}-1-[(1S,4S)-2-oxa-5-azabicyclo[2.2.1]heptan-5-yl]propan-1-one]	8.96e-10 M	8.87	–	–	–
COc1ccc2nc(N[C@@H]3CCCCNC3=O)n3nc(-c4ccc(F)cc4)nc3c2c1 [Example 239, (3R)-3-{[2-(4-fluorophenyl)-9-methoxy[1,2,4]triazolo[1,5-c]quinazolin-5-yl]amino}azepan-2-one]	–	–	8.92e-09 M	7.99	–
COc1ccc(-c2nc3c4c(Cl)cccc4nc(N[C@@H]4CCCCNC4=O)n3n2)cc1 [Example 168, (3R)-3-{[10-chloro-2-(4-methoxyphenyl)[1,2,4]triazolo[1,5-c]quinazolin-5-yl]amino}azepan-2-one]	–	–	9.09e-10 M	8.66	–
CCCNC(=O)[C@H](CC)Nc1nc2c(Br)cccc2c2nc(-c3ccc(Cl)cc3OC(F)F)nn12 [Example 683, (2S)-2-({7-bromo-2-[4-chloro-2-(difluoromethoxy)phenyl][1,2,4]triazolo[1,5-c]quinazolin-5-yl}amino)-N-propylbutanamide]	–	–	> 5.71e-07 M	7.78	–
COc1ccc(-c2nc3c4ccccc4nc(NC4CCCNC4=O)n3n2)cc1 (single isomer, unassigned) [Example 38, 3-{[2-(4-methoxyphenyl)[1,2,4]triazolo[1,5-c]quinazolin-5-yl]amino}piperidin-2-one]	–	–	1.94e-08 M	7.16	–
COc1ccc(-c2nc3c4cccc(Br)c4nc(N[C@@H](C(N)=O)C(C)C)n3n2)cc1 [Example 556, N^2-[7-bromo-2-(4-methoxyphenyl)[1,2,4]triazolo[1,5-c]quinazolin-5-yl]-D-valinamide]	–	–	4.03e-10 M	9.38	–
O=C1NCCCC[C@H]1Nc1nc2ccccc2c2nc(-c3ccc(F)c(Cl)c3)nn12 [Example 625, (3R)-3-{[2-(3-chloro-4-fluorophenyl)[1,2,4]triazolo[1,5-c]quinazolin-5-yl]amino}azepan-2-one]	–	–	1.5e-09 M	–	< 5.70
O=C1NCCCC[C@H]1Nc1nc2c(Cl)cccc2c2nc(-c3cnn(C4CC4)c3)nn12 [Example 816, (3R)-3-{[7-chloro-2-(1-cyclopropyl-1H-pyrazol-4-yl)[1,2,4]triazolo[1,5-c]quinazolin-5-yl]amino}azepan-2-one]	1.05e-09 M	9.00	–	–	–
COCc1cccc2c1nc(N[C@@H]1CCCCNC1=O)n1nc(-c3cnn(C)c3)nc21 [Example 1004, (3R)-3-{[7-(methoxymethyl)-2-(1-methyl-1H-pyrazol-4-yl)[1,2,4]triazolo[1,5-c]quinazolin-5-yl]amino}azepan-2-one]	1.9e-08 M	6.58	–	–	–
COc1cccc(-c2nc3c4ccccc4nc(N[C@H](C)C(=O)NC(C)C)n3n2)c1 [Example 105, N^2-[2-(3-methoxyphenyl)[1,2,4]triazolo[1,5-c]quinazolin-5-yl]-N-propan-2-yl-D-alaninamide]	–	–	8.86e-09 M	8.13	–
O=C1NCC[C@H]1Nc1nc2ccccc2c2nc(-c3ccncc3F)nn12 [Example 483, (3R)-3-{[2-(3-fluoropyridin-4-yl)[1,2,4]triazolo[1,5-c]quinazolin-5-yl]amino}pyrrolidin-2-one]	–	–	1.45e-06 M	5.66	–
O=C1NCCNC[C@H]1Nc1nc2c(C(F)(F)F)cccc2c2nc(-c3ccc(Cl)cc3)nn12 [Example 947, (6R)-6-{[2-(4-chlorophenyl)-7-(trifluoromethyl)[1,2,4]triazolo[1,5-c]quinazolin-5-yl]amino}-1,4-diazepan-5-one]	5.91e-10 M	9.49	–	–	–
CCC[C@@H](Nc1nc2ccccc2c2nc(-c3cscc3OC)nn12)C(=O)NC [Example 339, N^2-[2-(4-methoxythiophen-3-yl)[1,2,4]triazolo[1,5-c]quinazolin-5-yl]-N-methyl-D-norvalinamide]	–	–	3.37e-07 M	6.77	–
